In patent publication US20220402862A1 (Intellia Therapeutics, Inc., priority 2019, published 2022):
Values joined by “and” are separate entries in the source; they are usually repeats but may differ in a detail not shown here. Identical values can stand only once.

Tests used:
[1] = test system: Transthyretin (TTR); experiment: Serum TTR ELISA in mice after LNP dosing; assay type: in vivo, CD-1 female mice
Summary of the method: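 Serum mouse TTR was quantified by ELISA at 10,000-fold dilution for 0.1 mg/kg and 10,000/2,500-fold for 0.3 mg/kg. Samples came from female CD-1 mice (6–10 weeks) killed 6 or 7 days after a single intravenous LNP dose, usually 0.1 mg/kg.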

[2] = Dynamic light scattering of LNPs: Z-average diameter, number average diameter, PDI; assay type: physicochemical; settings: LNP
Summary of the method: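 Values reported are the Z-average (intensity-weighted mean size), the number-average diameter and the PDI (spread of sizes, 0 = fully uniform). All three came from dynamic light scattering of LNP preparations after dilution in PBS.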

[3] = RNA encapsulation efficiency of LNPs (Ribogreen fluorescence assay); assay type: physicochemical; settings: LNP; for Encapsulation (%): sg:mRNA 1:1, N/P about 6, amine lipid/DSPC/cholesterol/PEG-2k-DMG 50/9/38/3, Table 2, Experiments 2-20
Summary of the method: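 Encapsulation efficiency is (Total RNA − Free RNA)/Total RNA. Free RNA was quantified by RiboGreen fluorescence (488/525 nm, ~10 min, RT, dark) in plain TE buffer; total RNA was quantified after LNP lysis with 0.2% Triton X-100, both against RNA standard curves.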

[4] = pKa measurement of unformulated amine lipid (fluorescence, method of Jayaraman et al.); assay type: physicochemical; settings: 100 μM in 0.1 M phosphate buffer, pH 2.0-12.0
Experimental: The pKa of each amine lipid was determined according to the method in Jayaraman, et al. (Angewandte Chemie, 2012) with the following adaptations. […] Lipid was diluted to 100 μM in 0.1 M phosphate buffer (Boston Bioproducts) where the pH ranged from 2.0-12.0. Fluorescence intensity was measured using excitation and emission wavelengths of 321 nm and 448 nm.

[5] = test system: mouse TTR gene; experiment: In vivo editing in mouse liver, sgRNA targeting TTR (G282 or G502), % indel by NGS; design: species or system CD-1 female mice
Experimental: CD-1 female mice ranging from 6-10 weeks of age were used in each study. Animals were weighed and grouped according to body weight for preparing dosing solutions based on group average weight. LNPs were dosed via the lateral tail vein in a volume of 0.2 mL per animal (approximately 10 mL per kilogram body weight). The animals were periodically observed for adverse effects for at least 24 hours post dose. For studies measuring in vivo editing in liver, CD-1 female mice were dosed at 0.1 mg/kg unless otherwise noted. Animals were euthanized at 6 or 7 days by ex sanguination via cardiac puncture under isoflurane anesthesia. Liver tissue was collected from each animal for DNA extraction and analysis. Blood was collected into serum separator tubes or into tubes containing buffered sodium citrate for plasma as described herein. Cohorts of mice were measured for editing by Next-Generation Sequencing (NGS).
In brief, to quantitatively determine the efficiency of editing at the target location in the genome, genomic DNA was isolated and deep sequencing was utilized to identify the presence of insertions and deletions introduced by gene editing.
PCR primers were designed around the target site (e.g., within B2M), and the genomic area of interest was amplified. Additional PCR was performed according to the manufacturer's protocols (Illumina) to add the necessary chemistry for sequencing. The amplicons were sequenced on an Illumina MiSeq instrument. The reads were aligned to the mouse or rat reference genome (e.g., GRCm38) after eliminating those having low quality scores. The resulting files containing the reads were mapped to the reference genome (BAM files), where reads that overlapped the target region of interest were selected and the number of wild type reads versus the number of reads which contain an insertion, substitution, or deletion was calculated.
The editing percentage (e.g., the “indel efficiency” or “percent indels”) was defined as the total number of sequence reads with insertions or deletions over the total number of sequence reads, including wild type.
We assessed in vivo editing efficiency for materials delivered with formulations including various amine lipid compounds. Editing was measured using either G282 (SEQ ID No: 1) which targets the mouse TTR gene or G650 (SEQ ID No. 2) which targets the mouse B2M gene. Lipids described above were assessed for efficacy through in vivo editing experiments. LNPs were formulated at a 1:1 or 1:1.3 w/w ratio of sgRNA to Cas9 mRNA, and at an N/P ratio of about 6. Molar concentrations of lipids in the lipid component of the LNPs are used at mol % amine lipid/DSPC/cholesterol/PEG-2k-DMG of 50/9/38/3. The final LNPs were characterized to determine the encapsulation efficiency, polydispersity index, and average particle size according to the analytical methods provided above. Analysis of average particle size, polydispersity (PDI), total RNA content and encapsulation efficiency of RNA are shown in Table 2.
To assess whether the editing was dose responsive, experiments were performed in vivo at various LNP dose levels. Cas9 mRNA of Example 120 was formulated as LNPs with an sgRNA targeting TTR (G282, SEQ ID NO: 1; or G502, SEQ ID NO: 4).
We assessed in vivo delivery by measuring editing efficiency for materials delivered with formulations that included various amine lipid compounds. Cas9 mRNA (SEQ ID NO: 6) was formulated as LNPs with an sgRNA targetting the TTR mouse gene (SEQ ID NO: 4). LNPs were formulated at a 1:2 w/w ratio of sgRNA to Cas9 mRNA, and at an N/P ratio of about 6. Molar concentrations of lipids in the lipid component of the LNPs are used at mol % amine lipid/DSPC/cholesterol/PEG-2k-DMG of 50/9/38/3. The final LNPs compositions were characterized and analyzed as described in Example 120. Analysis of average particle size, polydispersity (PDI), total RNA content and encapsulation efficiency of RNA are shown in Table 6.

[6] = mouse, LNP i.v. 0.1 mg/kg, guide G282, Experiments 101-103
[7] = mouse, LNP i.v. 0.1 mg/kg, guide G282, Experiments 101-103, relative to TSS control
[8] = mouse, LNP i.v. 0.3 mg/kg, guide G282, Experiments 101-103
[9] = mouse, LNP i.v. 0.3 mg/kg, guide G282, Experiments 101-103, relative to TSS control
[10] = sg:mRNA 1:1, N/P 6.0, 50/9/38/3, Table 4, Experiments 101-104
[11] = sg:mRNA 1:1, N/P about 6, 50/9/38/3, Table 2, Experiments 2-20
[12] = LNP i.v. 0.1 mg/kg, guide G282, Experiments 101-103
[13] = LNP i.v. 0.3 mg/kg, guide G282, Experiments 101-103
[14] = sg:mRNA 1:2, N/P 6.0, 50/9/38/3, Table 4, Experiment 105
[15] = sg:mRNA 1:2, N/P about 6, 50/9/38/3, Table 6, Experiments 106-107

SMILES | Serum TTR [1, 6] [µg/mL] | Serum TTR % TSS [1, 7] [%] | Serum TTR [1, 8] [µg/mL] | Serum TTR % TSS [1, 9] [%] | Number mean (nm) [2, 10] [nm] | PDI [2, 10] | Z-avg (nm) [2, 10] [nm] | Number mean (nm) [2, 11] | Z-avg (nm) [2, 11] | % E [3, 10] [%] | Encapsulation (%) [3] | pKa [4] | Editing Mean % Indel [5, 12] [%] | Editing Mean % Indel [5, 13] [%] | further results
CCCCC/C=C\C/C=C\CCCCCCCC(=O)OCC(COC(=O)CCCN(CC)CC)COC(=O)CCC(OCCCCCCCC)OCCCCCCCC (centres unmarked) [Compound 29, 3-((4,4-bis(octyloxy)butanoyl)oxy)-2-(((4-(diethylamino)butanoyl)oxy)methyl)propyl (9Z,12Z)-octadeca-9,12-dienoate] | 663 | 48 | 205 | 15 | 70 | 0.003 | 84 | 66.92 nm and 64.63 nm | 82.41 nm and 78.63 nm | 99 | 98% | 6.84 | 31.4 | 54.8 | –
CCCCC/C=C\C/C=C\CCCCCCCC(=O)OCC(COC(=O)CCC(OCCCCCCCC)OCCCCCCCC)COC(=O)C1CCN(C)CC1 (centres unmarked) [Compound 31, 3-((4,4-bis(octyloxy)butanoyl)oxy)-2-((((9Z,12Z)-octadeca-9,12-dienoyl)oxy)methyl)propyl 1-methylpiperidine-4-carboxylate] | 976 | 71 | 226 | 17 | 61 | 0.04 | 76 | 58.67 nm and 59.35 nm | 75.11 nm and 73.65 nm | 99 | 98% and 99% | 7.31 | 13.5 | 50.7 | –
CCCCCC/C=C\COC(=O)CCCCCCCC(=O)OCC(COC(=O)CCC(OCCCCCCCC)OCCCCCCCC)COC(=O)OCCCN(CC)CC (centres unmarked) [Compound 54, (Z)-1-(3-((4,4-bis(octyloxy)butanoyl)oxy)-2-((((3-(diethylamino)propoxy)carbonyl)oxy)methyl)propyl) 9-(non-2-en-1-yl) nonanedioate] | 449 | 49 | 97 | 11 | 77.96 | 0.032 | 96.98 | 76.95 nm and 71.8 nm and 78.39 nm | 95.76 nm and 89.8 nm and 99.71 nm | 98 | 98% | 6.4 | 28.3 | 64.8 | –
CCCCCCCCOC(CCC(=O)OCC(COC(=O)CCCCCCCCCCC(=O)OCCCCCCC)COC(=O)OCCCN(CC)CC)OCCCCCCCC (centres unmarked) [Compound 61, 1-(3-((4,4-bis(octyloxy)butanoyl)oxy)-2-((((3-(diethylamino)propoxy)carbonyl)oxy)methyl)propyl) 12-heptyl dodecanedioate] | – | – | – | – | – | – | – | 72 nm | 87.26 nm | – | 97% | 6.29 | – | – | Serum TTR ([1]; mouse, LNP i.v. 0.03 mg/kg, guide G502, Experiment 105): 711 µg/mL; Serum TTR % TSS ([1]; mouse, LNP i.v. 0.03 mg/kg, guide G502, Experiment 105, relative to TSS control): 65%; Serum TTR ([1]; mouse, LNP i.v. 0.1 mg/kg, guide G502, Experiment 105): 472 µg/mL; Serum TTR % TSS ([1]; mouse, LNP i.v. 0.1 mg/kg, guide G502, Experiment 105, relative to TSS control): 43%; PDI [2, 11]: 0.018; Number mean (nm) [2, 14]: 79.73 nm; PDI [2, 14]: 0.033; Z-avg (nm) [2, 14]: 99.25 nm; % E [3, 14]: 98%; Editing Mean % Indel ([5]; LNP i.v. 0.03 mg/kg, guide G502, Experiment 105): 7.78%; Editing Mean % Indel ([5]; LNP i.v. 0.1 mg/kg, guide G502, Experiment 105): 36.06%
CCCCC/C=C\C/C=C\CCCCCCCC(=O)OCC(COC(=O)CCC(OCCCCCCCC)OCCCCCCCC)COC(=O)NCCN1CCCC1 (centres unmarked) [Compound 100, 3-((4,4-bis(octyloxy)butanoyl)oxy)-2-((((2-(pyrrolidin-1-yl)ethyl)carbamoyl)oxy)methyl)propyl (9Z,12Z)-octadeca-9,12-dienoate] | – | – | – | – | – | – | – | – | – | – | – | 7.2 | – | – | Serum TTR % TSS ([1]; mouse serum TTR relative to TSS control, guide G502, i.v. 0.1 mg/kg): 81.3%; Serum TTR ([1]; mouse serum, guide G502, i.v. 0.1 mg/kg): 1017.4 µg/mL; Number mean (nm) [2, 15]: 70 nm; PDI [2, 15]: 0.04; Z-avg (nm) [2, 15]: 89 nm; % E ([3]; sg:mRNA 1:2, N/P about 6, 50/9/38/3, TTR sgRNA (SEQ ID NO: 4), Table 6, Experiments 106-107): 99%; Editing Mean % Indel ([5]; guide G502, i.v. 0.1 mg/kg, sgRNA:Cas9 mRNA 1:2 w/w, experiments 106, 107): 12%
